The test system of experiment [1] is HuH7 cell line (FGF19 amplification). Put plainly: Cancer cell line cell viability assay (Cell Titer-Glo), 120 hr. It counts as cell-based. The following applies: Homo sapiens, Huh-7. A digest of the protocol:
(§1)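 Following overnight attachment, each line receives compound in triplicate across nine 4-fold dilutions starting at 3 μM, with DMSO backfill for equal solvent. Luminescence after Cell Titer-Glo 2.0 addition gives percent viability versus DMSO control, fitted by 4-parameter logistic for IC50.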
(Cellular ATP, detected with luciferase, serves as a proxy for viable cell number.)

Experiment [2] concerns KG-1 cell line (FGFR 1-fusion). Nature of the experiment: Cancer cell line cell viability assay (Cell Titer-Glo), 72 hr. In kind it is cell-based. As to conditions: Homo sapiens, KG-1, KG-1 cell line (FGFR1-fusion). In a few lines: as §1
Experiment [3] relates to KATO-III cell line (FGFR2 amplification). The description is as above. It counts as cell-based. As to conditions: Homo sapiens, KATO III. A digest of the protocol: as §1
In experiment [4] the test system is RT112/84 cell line (FGFR3-fusion). Described as above. The following applies: Homo sapiens, RT112/84, RT112/84 cell line (FGFR3-fusion). It counts as cell-based. A digest of the protocol:
as §1

Another experiment concerns the target T1, FGFR3 (V555M) (Homo sapiens, UniProt P22607, V555M).
T1 construct: made in house; host or cells: E. coli (BL21-derived), T7 phage
Nature of the experiment: Kinase binding assay (kinase-tagged T7 phage, affinity beads, qPCR), Kd. The following applies: V555M mutant; read-out: FGFR3 (V555M) (Kd nM). In a few lines: (§2)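 Kd obtained by Levenberg–Marquardt Hill-equation fit (slope −1) to qPCR-measured kinase retained on ligand-coated streptavidin beads.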

Another experiment deals with T2, FGFR1 (Homo sapiens, UniProt P11362).
T2 construct: made in house; host or cells: E. coli (BL21-derived), T7 phage
Described as above. As to conditions: read-out: FGFR1 (Kd nM). In a few lines:
as §2

A further experiment concerns the target T3, FGFR3 (Homo sapiens, UniProt P22607).
T3 construct: made in house; host or cells: E. coli (BL21-derived), T7 phage
Described as above. As to conditions: read-out: FGFR3 (Kd nM). In a few lines:
as §2

The target in another experiment is T4, FGFR2 (Homo sapiens, UniProt P21802).
T4 construct: made in house; host or cells: E. coli (BL21-derived), T7 phage
The description is as above. The following applies: read-out: FGFR2 (Kd nM). In a few lines:
as §2

In a further experiment the target is T5, FGFR4 (Homo sapiens, UniProt P22455).
T5 construct: made in house; host or cells: E. coli (BL21-derived), T7 phage
Described as above. The following applies: read-out: FGFR4 (Kd nM). A digest of the protocol: as §2

The pIC50 is −log10 of the IC50, conventionally taken in molar units. A low value points to a large IC50. The Kd is a measure of binding affinity in units of concentration.

pIC50: −log10 of the molar value.

T3 sequence (P22607 23-806): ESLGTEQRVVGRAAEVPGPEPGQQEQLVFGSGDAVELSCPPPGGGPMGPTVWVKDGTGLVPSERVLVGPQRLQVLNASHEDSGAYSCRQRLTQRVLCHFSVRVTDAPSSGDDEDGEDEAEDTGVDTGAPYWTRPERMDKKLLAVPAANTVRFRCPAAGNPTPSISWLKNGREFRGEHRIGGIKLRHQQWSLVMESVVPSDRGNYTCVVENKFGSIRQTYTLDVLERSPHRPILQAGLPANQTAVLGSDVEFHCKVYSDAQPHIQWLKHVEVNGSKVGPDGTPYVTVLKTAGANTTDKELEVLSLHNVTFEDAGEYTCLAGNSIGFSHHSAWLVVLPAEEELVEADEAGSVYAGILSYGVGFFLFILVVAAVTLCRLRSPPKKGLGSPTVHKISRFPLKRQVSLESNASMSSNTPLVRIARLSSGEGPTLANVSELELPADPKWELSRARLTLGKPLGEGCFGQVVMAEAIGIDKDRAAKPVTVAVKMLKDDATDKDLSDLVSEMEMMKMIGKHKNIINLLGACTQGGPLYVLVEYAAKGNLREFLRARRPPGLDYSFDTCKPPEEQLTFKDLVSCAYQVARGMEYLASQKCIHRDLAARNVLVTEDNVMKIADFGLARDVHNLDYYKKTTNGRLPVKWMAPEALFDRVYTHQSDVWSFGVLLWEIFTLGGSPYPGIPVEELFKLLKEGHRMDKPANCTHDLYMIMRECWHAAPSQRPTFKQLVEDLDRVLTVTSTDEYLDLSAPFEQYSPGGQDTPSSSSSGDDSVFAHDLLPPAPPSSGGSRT
T4 sequence (P21802 22-821): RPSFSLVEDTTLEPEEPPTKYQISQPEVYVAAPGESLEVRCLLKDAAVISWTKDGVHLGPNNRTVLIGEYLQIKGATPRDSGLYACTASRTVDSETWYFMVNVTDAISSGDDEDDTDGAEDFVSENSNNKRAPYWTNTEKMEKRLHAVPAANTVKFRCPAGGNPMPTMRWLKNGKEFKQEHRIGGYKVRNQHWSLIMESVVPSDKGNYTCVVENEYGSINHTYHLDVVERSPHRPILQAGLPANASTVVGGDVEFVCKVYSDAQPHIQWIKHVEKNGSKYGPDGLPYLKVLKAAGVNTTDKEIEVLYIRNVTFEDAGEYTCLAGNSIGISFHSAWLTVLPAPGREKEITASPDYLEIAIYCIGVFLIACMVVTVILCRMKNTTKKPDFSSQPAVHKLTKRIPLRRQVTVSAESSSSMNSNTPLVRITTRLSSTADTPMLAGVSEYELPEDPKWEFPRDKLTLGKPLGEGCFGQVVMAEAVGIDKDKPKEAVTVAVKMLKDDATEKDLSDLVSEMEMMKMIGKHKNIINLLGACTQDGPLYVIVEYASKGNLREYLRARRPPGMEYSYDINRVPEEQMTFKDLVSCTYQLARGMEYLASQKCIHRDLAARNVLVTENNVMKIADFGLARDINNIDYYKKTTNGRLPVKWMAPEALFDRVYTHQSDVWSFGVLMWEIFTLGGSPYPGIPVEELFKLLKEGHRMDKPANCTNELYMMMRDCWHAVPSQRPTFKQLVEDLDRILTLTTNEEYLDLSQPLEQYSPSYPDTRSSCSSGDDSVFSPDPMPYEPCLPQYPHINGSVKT
T5 sequence (P22455 22-802): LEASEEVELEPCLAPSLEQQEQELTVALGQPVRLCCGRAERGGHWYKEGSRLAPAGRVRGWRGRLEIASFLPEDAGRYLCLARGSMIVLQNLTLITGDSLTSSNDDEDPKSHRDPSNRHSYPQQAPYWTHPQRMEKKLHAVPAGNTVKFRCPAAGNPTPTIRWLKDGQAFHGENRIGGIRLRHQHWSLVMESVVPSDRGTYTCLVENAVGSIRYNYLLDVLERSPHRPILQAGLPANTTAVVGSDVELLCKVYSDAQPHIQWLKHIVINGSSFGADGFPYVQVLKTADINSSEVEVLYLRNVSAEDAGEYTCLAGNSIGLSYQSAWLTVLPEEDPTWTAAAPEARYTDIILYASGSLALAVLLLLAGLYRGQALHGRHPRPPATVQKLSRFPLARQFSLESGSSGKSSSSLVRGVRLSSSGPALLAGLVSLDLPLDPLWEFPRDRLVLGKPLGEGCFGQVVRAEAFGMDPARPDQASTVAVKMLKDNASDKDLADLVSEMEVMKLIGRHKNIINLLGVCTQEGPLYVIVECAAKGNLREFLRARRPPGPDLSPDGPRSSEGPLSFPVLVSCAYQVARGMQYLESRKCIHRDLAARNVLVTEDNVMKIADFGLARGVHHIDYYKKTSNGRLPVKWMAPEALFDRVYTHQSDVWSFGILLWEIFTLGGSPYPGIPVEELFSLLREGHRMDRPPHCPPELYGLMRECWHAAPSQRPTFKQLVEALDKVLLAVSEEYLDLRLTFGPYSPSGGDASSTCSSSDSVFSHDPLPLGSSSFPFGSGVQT
T2 sequence (P11362 22-822): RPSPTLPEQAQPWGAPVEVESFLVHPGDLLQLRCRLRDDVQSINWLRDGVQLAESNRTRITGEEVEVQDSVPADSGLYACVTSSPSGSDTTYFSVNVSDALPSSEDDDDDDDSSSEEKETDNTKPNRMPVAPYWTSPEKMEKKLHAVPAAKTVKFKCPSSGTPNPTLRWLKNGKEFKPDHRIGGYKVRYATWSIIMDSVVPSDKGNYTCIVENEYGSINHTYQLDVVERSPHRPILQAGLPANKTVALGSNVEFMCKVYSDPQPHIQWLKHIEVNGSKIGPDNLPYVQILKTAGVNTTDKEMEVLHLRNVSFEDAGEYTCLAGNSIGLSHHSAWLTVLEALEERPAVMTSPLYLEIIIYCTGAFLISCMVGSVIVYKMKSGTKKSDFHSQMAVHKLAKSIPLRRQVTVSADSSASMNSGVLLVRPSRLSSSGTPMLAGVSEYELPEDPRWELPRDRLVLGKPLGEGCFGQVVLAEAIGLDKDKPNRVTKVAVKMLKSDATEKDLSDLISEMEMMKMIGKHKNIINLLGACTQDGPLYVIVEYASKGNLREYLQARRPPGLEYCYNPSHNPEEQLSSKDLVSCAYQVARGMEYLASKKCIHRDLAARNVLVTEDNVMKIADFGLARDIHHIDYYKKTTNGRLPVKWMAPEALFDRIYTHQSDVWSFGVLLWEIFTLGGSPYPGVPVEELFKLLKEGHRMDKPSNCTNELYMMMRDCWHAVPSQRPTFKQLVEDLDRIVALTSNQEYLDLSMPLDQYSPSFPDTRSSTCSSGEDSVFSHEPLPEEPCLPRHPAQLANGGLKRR
T1 sequence (P22607 23-806 V555M): as the sequence (P22607 23-806) above, with V533M counted along it

For `COc1cc2[nH]nc(-c3cnc(N4CC(C)(N5CC(C)(O)C5)C4)c(C#N)c3)c2cc1O[C@H](C)c1c(Cl)cncc1Cl` [Example 99, (R)-5-(5-(1-(3,5-dichloropyridin-4-yl)ethoxy)-6-methoxy-1H-indazol-3-yl)-2-(3-hydroxy-3,3′-dimethyl-[1,3′-biazetidin]-1′-yl)nicotinonitrile], the negative-log IC50 (pIC50) in experiment [1], in experiment [2], in experiment [3] and in experiment [4] was 7.30 to 10.00 in each case. Further, the Kd at FGFR3 (V555M), on FGFR1, on FGFR3, at FGFR2 and on FGFR4 was 1 to 50 nM throughout.

For the molecule `C[C@@H](Oc1ccc2[nH]nc(-c3cnc(N4CC(C)(N5CCOCC5)C4)c(C#N)c3)c2c1)c1c(Cl)cncc1Cl` [Example 34, 5-[5-[(1R)-1-(3,5-dichloro-4-pyridyl)ethoxy]-1H-indazol-3-yl]-2-(3-methyl-3-morpholino-azetidin-1-yl)pyridine-3-carbonitrile], the pIC50 was 7.30 to 10.00 in experiment [1], 6.00 to 6.70 in experiment [2], 6.00 to 6.70 in experiment [3] and 6.70 to 7.30 in [4]. The Kd on FGFR3 (V555M) fell in the range of 1 to 50 nM; on FGFR1, 50 to 300 nM; on FGFR3, 1 to 50 nM; at FGFR2, 50 to 300 nM; at FGFR4 it was 1 to 50 nM.

`CC(C)NCC1(C)CN(c2ncc(-c3n[nH]c4ccc(O[C@H](C)c5c(Cl)cncc5Cl)cc34)cc2C#N)C1` [Example 133, 5-[5-[(1R)-1-(3,5-dichloro-4-pyridyl)ethoxy]-1H-indazol-3-yl]-2-[3-[(isopropylamino)meth-yl]-3-methyl-azetidin-1-yl]pyridine-3-carbonitrile]: the negative-log IC50 (pIC50) is 6.00 to 6.70 in [1], 6.70 to 7.30 in experiment [2], 6.00 to 6.70 in experiment [3] and 6.70 to 7.30 in experiment [4]. Further, the Kd was 1 to 50 nM on FGFR3 (V555M); 1 to 50 nM on FGFR1; 1 to 50 nM on FGFR3; 50 to 300 nM at FGFR2; 1 to 50 nM on FGFR4.

Take `COCCNC1(C)CN(c2ncc(-c3n[nH]c4cc(OC)c(O[C@H](C)c5c(Cl)cncc5Cl)cc34)cc2C#N)C1` [Example 37, 5-[5-[(1R)-1-(3,5-dichloro-4-pyridyl)ethoxy]-6-methoxy-1H-indazol-3-yl]-2-[3-(2-methoxyethylamino)-3-methyl-azetidin-1-yl]pyridine-3-carbonitrile]: the pIC50 is 7.30 to 10.00 in experiment [1], 6.70 to 7.30 in experiment [2], 6.70 to 7.30 in experiment [3] and 7.30 to 10.00 in experiment [4]. In addition, the Kd at FGFR3 (V555M), at FGFR1, on FGFR3, at FGFR2 and on FGFR4 was 1 to 50 nM in each case.

Turning to `C[C@@H](Oc1ccc2[nH]nc(-c3cnc(N4CC(C)(NCC(C)(C)O)C4)c(C#N)c3)c2c1)c1c(Cl)cncc1Cl` [Example 54, (R)-5-(5-(1-(3,5-dichloropyridin-4-yl)ethoxy)-1H-indazol-3-yl)-2-(3-((2-hydroxy-2-methylpropyl)amino)-3-methylazetidin-1-yl)nicotinonitrile], the negative logarithm of the IC50 (pIC50) in experiment [1] is 7.30 to 10.00; in experiment [2], 6.00 to 6.70; in experiment [3] it was 6.00 to 6.70; in experiment [4], 6.70 to 7.30. For the same molecule, the Kd on FGFR3 (V555M), at FGFR1, on FGFR3, at FGFR2 and on FGFR4 was 1 to 50 nM each time.

Take `C[C@@H](Oc1cc2c(-c3cnc(N4CC(C)(N5CCCC5)C4)c(C#N)c3)n[nH]c2cc1F)c1c(Cl)cncc1Cl` [Example 135, (R)-5-(5-(1-(3,5-dichloropyridin-4-yl)ethoxy)-6-fluoro-1H-indazol-3-yl)-2-(3-methyl-3-(pyrrolidin-1-yl)azetidin-1-yl)nicotinonitrile]: the pIC50 is 6.70 to 7.30 in [1], 6.00 to 6.70 in [2], 6.00 to 6.70 in experiment [3] and 6.70 to 7.30 in [4]. Besides, the dissociation constant Kd lay within 1 to 50 nM on FGFR3 (V555M); 50 to 300 nM on FGFR1; 1 to 50 nM at FGFR3; 1 to 50 nM on FGFR2; 1 to 50 nM on FGFR4.

Regarding `C[C@@H](Oc1ccc2[nH]nc(-c3cnc(N4CC(C)(NCCC(F)F)C4)c(C#N)c3)c2c1)c1c(Cl)cncc1Cl` [Example 21, (R)-5-(5-(1-(3,5-dichloropyridin-4-yl)ethoxy)-1H-indazol-3-yl)-2-(3-((3,3-difluoropropyl)amino)-3-methylazetidin-1-yl)nicotinonitrile], the pIC50 was 6.70 to 7.30 in experiment [1], 6.00 to 6.70 in experiment [2], 6.00 to 6.70 in experiment [3] and 6.70 to 7.30 in experiment [4]. Further, the equilibrium dissociation constant (Kd) on FGFR3 (V555M) lay within 1 to 50 nM; at FGFR1, 50 to 300 nM; on FGFR3, 1 to 50 nM; on FGFR2 it was 50 to 300 nM; on FGFR4 it was 1 to 50 nM.

As to `C[C@@H](Oc1ccc2[nH]nc(-c3cnc(N4CC(C)(N[C@H]5CCOC5)C4)c(C#N)c3)c2c1)c1c(Cl)cncc1Cl` [Example 20, 5-(5-((R)-1-(3,5-dichloropyridin-4-yl)ethoxy)-1H-indazol-3-yl)-2-(3-methyl-3-(((S)-tetrahydrofuran-3-yl)amino)azetidin-1-yl)nicotinonitrile], the negative-log IC50 (pIC50) in experiment [1] was 7.30 to 10.00; in experiment [2] it was 6.00 to 6.70; in experiment [3] it was 6.70 to 7.30; in [4], 6.70 to 7.30. Moreover, the Kd at FGFR3 (V555M), on FGFR1, on FGFR3, at FGFR2 and on FGFR4 was 1 to 50 nM each time.

As for `COc1cc2[nH]nc(-c3cnc(N4CC(C)(N[C@@H]5CCOC5)C4)c(C#N)c3)c2cc1O[C@H](C)c1c(Cl)cncc1Cl` [Example 25, 5-(5-((R)-1-(3,5-dichloropyridin-4-yl)ethoxy)-6-methoxy-1H-indazol-3-yl)-2-(3-methyl-3-(((R)-tetrahydrofuran-3-yl)amino)azetidin-1-yl)nicotinonitrile], the pIC50 in [1] is 7.30 to 10.00; in experiment [2], 6.70 to 7.30; in experiment [3] it was 6.70 to 7.30; in experiment [4] it was 7.30 to 10.00. In addition, the Kd on FGFR3 (V555M), on FGFR1, on FGFR3, on FGFR2 and on FGFR4 was 1 to 50 nM throughout.

Consider `C[C@@H](Oc1ccc2[nH]nc(-c3cnc(N4CC(C)(NCC(F)F)C4)c(C#N)c3)c2c1)c1c(Cl)cncc1Cl` [Example 22, (R)-5-(5-(1-(3,5-dichloropyridin-4-yl)ethoxy)-1H-indazol-3-yl)-2-(3-((2,2-difluoroethyl)amino)-3-methylazetidin-1-yl)nicotinonitrile], for which the negative-log IC50 (pIC50) is 7.30 to 10.00 in [1], 6.00 to 6.70 in [2], 6.00 to 6.70 in experiment [3] and 6.70 to 7.30 in [4]. Further, the Kd at FGFR3 (V555M) was 1 to 50 nM; on FGFR1, 50 to 300 nM; at FGFR3 it was 1 to 50 nM; on FGFR2, 50 to 300 nM; at FGFR4, 1 to 50 nM.

The record behind these values is patent publication US20250368666A1, “INDAZOLE COMPOUNDS” (TYRA BIOSCIENCES, INC., priority 2022, published 2025).
